Source: PubChem BioAssay AID1963853 (Molecular Pharmacology Branch, DTP, NCI, 2024)

Tested on: 266295-075-R-J1-PDC spheroid viability
Assay: Anticancer human tumor 266295-075-R-J1-PDC patient-derived head and neck squamous carcinoma cell line growth inhibition [POLQ]
Conditions: spheroids with HUVEC and MSC; for IC50: curve of first compound; for viability, T/C: stronger effect = lower value
Procedure, shortened: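 Complex spheroid viability model combining PDC tumour cells with endothelial (HUVEC) and MSC stromal cells. Novobiocin, ART-558 or RP6685 were tested singly and in combination with standard and investigational anticancer drugs. Each was titrated in half-log steps from near clinical Cmax, or from 10 microM where Cmax was unknown.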

[1] = second compound 0.0316 µM, first compound 0.0316 µM
[2] = second compound 0.0316 µM, first compound 0.1 µM
[3] = second compound 0.1 µM, first compound 0.0316 µM
[4] = second compound 0.1 µM, first compound 0.1 µM
[5] = second compound 0.316 µM, first compound 0.0316 µM
[6] = second compound 0.316 µM, first compound 0.1 µM
[7] = second compound 1 µM, first compound 0.0316 µM
[8] = second compound 1 µM, first compound 0.1 µM
[9] = second compound 3.16 µM, first compound 0.0316 µM
[10] = second compound 3.16 µM, first compound 0.1 µM
[11] = second compound 10 µM, first compound 0.0316 µM
[12] = second compound 10 µM, first compound 0.1 µM
[13] = second compound 0.0316 µM, first compound 0.316 µM
[14] = second compound 0.0316 µM, first compound 1 µM
[15] = second compound 0.0316 µM, first compound 3.16 µM
[16] = second compound 0.0316 µM, first compound 10 µM
[17] = second compound 0.1 µM, first compound 0.316 µM
[18] = second compound 0.1 µM, first compound 1 µM
[19] = second compound 0.1 µM, first compound 3.16 µM
[20] = second compound 0.1 µM, first compound 10 µM
[21] = second compound 0.316 µM, first compound 0.316 µM
[22] = second compound 0.316 µM, first compound 1 µM
[23] = second compound 0.316 µM, first compound 3.16 µM
[24] = second compound 0.316 µM, first compound 10 µM
[25] = second compound 1 µM, first compound 0.316 µM
[26] = second compound 1 µM, first compound 1 µM
[27] = second compound 1 µM, first compound 3.16 µM
[28] = second compound 1 µM, first compound 10 µM
[29] = second compound 3.16 µM, first compound 0.316 µM
[30] = second compound 3.16 µM, first compound 1 µM
[31] = second compound 3.16 µM, first compound 3.16 µM
[32] = second compound 3.16 µM, first compound 10 µM
[33] = second compound 10 µM, first compound 0.316 µM
[34] = second compound 10 µM, first compound 1 µM
[35] = second compound 10 µM, first compound 3.16 µM
[36] = second compound 10 µM, first compound 10 µM
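Note: spheroids exposed to compounds for seven days before readout.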

Cn1ncnc1[C@H]1c2n[nH]c(=O)c3cc(F)cc(c23)N[C@@H]1c1ccc(F)cc1 + Nc1ccc(C#CCN(C(=O)Cc2ncc(C(F)(F)F)cc2C(F)(F)F)c2ccc(F)cc2)nn1
IC50 (second compound 0.0316 µM): > 0.1 µM
IC50 (second compound 0.1 µM): > 0.1 µM
IC50 (second compound 0.316 µM): > 0.1 µM
IC50 (second compound 1 µM): > 0.1 µM
IC50 (second compound 3.16 µM): > 0.1 µM
IC50 (second compound 10 µM): > 0.1 µM
viability, T/C (second compound 0.0316 µM, first compound 0.000316 µM): 86.1%
viability, T/C (second compound 0.0316 µM, first compound 0.001 µM): 95.8%
viability, T/C (second compound 0.0316 µM, first compound 0.00316 µM): 89.1%
viability, T/C (second compound 0.0316 µM, first compound 0.01 µM): 92.1%
viability, T/C [1]: 79.7%
viability, T/C [2]: 85.3%
viability, T/C (second compound 0.1 µM, first compound 0.000316 µM): 97.9%
viability, T/C (second compound 0.1 µM, first compound 0.001 µM): 107%
viability, T/C (second compound 0.1 µM, first compound 0.00316 µM): 91.8%
viability, T/C (second compound 0.1 µM, first compound 0.01 µM): 101%
viability, T/C [3]: 88.5%
viability, T/C [4]: 101%
viability, T/C (second compound 0.316 µM, first compound 0.000316 µM): 110%
viability, T/C (second compound 0.316 µM, first compound 0.001 µM): 114%
viability, T/C (second compound 0.316 µM, first compound 0.00316 µM): 92.1%
viability, T/C (second compound 0.316 µM, first compound 0.01 µM): 82.7%
viability, T/C [5]: 93%
viability, T/C [6]: 99.4%
viability, T/C (second compound 1 µM, first compound 0.000316 µM): 105%
viability, T/C (second compound 1 µM, first compound 0.001 µM): 96.3%
viability, T/C (second compound 1 µM, first compound 0.00316 µM): 78.6%
viability, T/C (second compound 1 µM, first compound 0.01 µM): 99%
viability, T/C [7]: 105%
viability, T/C [8]: 69.7%
viability, T/C (second compound 3.16 µM, first compound 0.000316 µM): 103%
viability, T/C (second compound 3.16 µM, first compound 0.001 µM): 101%
viability, T/C (second compound 3.16 µM, first compound 0.00316 µM): 98.5%
viability, T/C (second compound 3.16 µM, first compound 0.01 µM): 83.8%
viability, T/C [9]: 87.9%
viability, T/C [10]: 87.6%
viability, T/C (second compound 10 µM, first compound 0.000316 µM): 91.6%
viability, T/C (second compound 10 µM, first compound 0.001 µM): 103%
viability, T/C (second compound 10 µM, first compound 0.00316 µM): 110%
viability, T/C (second compound 10 µM, first compound 0.01 µM): 104%
viability, T/C [11]: 88.5%
viability, T/C [12]: 122%

C#Cc1c(F)ccc2cc(O)cc(-c3ncc4c(N5CC6CCC(C5)N6)nc(OCC56CCCN5CC(F)C6)nc4c3F)c12 (stereo not given) + COC1C(OC(N)=O)C(O)C(Oc2ccc3c(O)c(NC(=O)c4ccc(O)c(CC=C(C)C)c4)c(=O)oc3c2C)OC1(C)C
IC50 (second compound 0.0316 µM): > 10 µM
IC50 (second compound 0.1 µM): > 10 µM
IC50 (second compound 0.316 µM): > 10 µM
IC50 (second compound 1 µM): > 10 µM
IC50 (second compound 3.16 µM): > 10 µM
IC50 (second compound 10 µM): > 10 µM
viability, T/C [1]: 97.4%
viability, T/C [2]: 79.1%
viability, T/C [13]: 69.6%
viability, T/C [14]: 65.3%
viability, T/C [15]: 60.8%
viability, T/C [16]: 58.2%
viability, T/C [3]: 94.9%
viability, T/C [4]: 84.9%
viability, T/C [17]: 74.9%
viability, T/C [18]: 60.1%
viability, T/C [19]: 71.6%
viability, T/C [20]: 54.2%
viability, T/C [5]: 100%
viability, T/C [6]: 88.5%
viability, T/C [21]: 87.8%
viability, T/C [22]: 68%
viability, T/C [23]: 67.3%
viability, T/C [24]: 60.3%
viability, T/C [7]: 91.3%
viability, T/C [8]: 78.1%
viability, T/C [25]: 80.1%
viability, T/C [26]: 87%
viability, T/C [27]: 65.2%
viability, T/C [28]: 56.9%
viability, T/C [9]: 94.6%
viability, T/C [10]: 77.8%
viability, T/C [29]: 79.5%
viability, T/C [30]: 67.7%
viability, T/C [31]: 60.4%
viability, T/C [32]: 54.3%
viability, T/C [11]: 96.9%
viability, T/C [12]: 91.9%
viability, T/C [33]: 79.1%
viability, T/C [34]: 64%
viability, T/C [35]: 70.2%
viability, T/C [36]: 55.7%

C#Cc1c(F)ccc2cc(O)cc(-c3ncc4c(N5CC6CCC(C5)N6)nc(OCC56CCCN5CC(F)C6)nc4c3F)c12 (stereo not given) + Nc1ccc(C#CCN(C(=O)Cc2ncc(C(F)(F)F)cc2C(F)(F)F)c2ccc(F)cc2)nn1
IC50 (second compound 0.0316 µM): > 10 µM
IC50 (second compound 0.1 µM): 7.4 µM
IC50 (second compound 0.316 µM): 8.3 µM
IC50 (second compound 1 µM): > 10 µM
IC50 (second compound 3.16 µM): > 10 µM
IC50 (second compound 10 µM): > 10 µM
viability, T/C [1]: 86.8%
viability, T/C [2]: 89%
viability, T/C [13]: 82.9%
viability, T/C [14]: 71.6%
viability, T/C [15]: 60.8%
viability, T/C [16]: 50%
viability, T/C [3]: 90.2%
viability, T/C [4]: 103%
viability, T/C [17]: 75.2%
viability, T/C [18]: 81%
viability, T/C [19]: 67%
viability, T/C [20]: 43.7%
viability, T/C [5]: 89.2%
viability, T/C [6]: 71.7%
viability, T/C [21]: 63%
viability, T/C [22]: 84.1%
viability, T/C [23]: 60.7%
viability, T/C [24]: 47.3%
viability, T/C [7]: 114%
viability, T/C [8]: 84%
viability, T/C [25]: 70.7%
viability, T/C [26]: 68.3%
viability, T/C [27]: 56.9%
viability, T/C [28]: 54.7%
viability, T/C [9]: 80.8%
viability, T/C [10]: 90.6%
viability, T/C [29]: 74.7%
viability, T/C [30]: 68.7%
viability, T/C [31]: 71.6%
viability, T/C [32]: 64.1%
viability, T/C [11]: 91.8%
viability, T/C [12]: 73.9%
viability, T/C [33]: 82.5%
viability, T/C [34]: 63.8%
viability, T/C [35]: 64.1%
viability, T/C [36]: 52.4%

CC1COCCN1c1cc(C2(O)CC3CCC(C2)O3)c2cnn(-c3ccn[nH]3)c2n1 (stereo not given) + Nc1ccc(C#CCN(C(=O)Cc2ncc(C(F)(F)F)cc2C(F)(F)F)c2ccc(F)cc2)nn1
IC50 (second compound 0.0316 µM): 0.996 µM
IC50 (second compound 0.1 µM): 0.591 µM
IC50 (second compound 0.316 µM): 0.324 µM
IC50 (second compound 1 µM): 0.903 µM
IC50 (second compound 3.16 µM): 0.831 µM
IC50 (second compound 10 µM): 0.706 µM
viability, T/C [1]: 80.4%
viability, T/C [2]: 112%
viability, T/C [13]: 67.6%
viability, T/C [14]: 54.4%
viability, T/C [15]: 42.5%
viability, T/C [16]: 32.3%
viability, T/C [3]: 96.9%
viability, T/C [4]: 85.9%
viability, T/C [17]: 53.5%
viability, T/C [18]: 46.6%
viability, T/C [19]: 39.2%
viability, T/C [20]: 29.9%
viability, T/C [5]: 94.9%
viability, T/C [6]: 100%
viability, T/C [21]: 50.2%
viability, T/C [22]: 51.2%
viability, T/C [23]: 38.3%
viability, T/C [24]: 26.9%
viability, T/C [7]: 86.2%
viability, T/C [8]: 66.3%
viability, T/C [25]: 63.1%
viability, T/C [26]: 46.9%
viability, T/C [27]: 42.5%
viability, T/C [28]: 25.7%
viability, T/C [9]: 83.9%
viability, T/C [10]: 84.1%
viability, T/C [29]: 63.7%
viability, T/C [30]: 46.8%
viability, T/C [31]: 36.8%
viability, T/C [32]: 27.8%
viability, T/C [11]: 78.4%
viability, T/C [12]: 75.7%
viability, T/C [33]: 69.8%
viability, T/C [34]: 41.2%
viability, T/C [35]: 30.2%
viability, T/C [36]: 26.7%

O=C(c1cc(Cc2n[nH]c(=O)c3ccccc23)ccc1F)N1CCN(C(=O)C2CC2)CC1 + Cc1cccc(N(C)C(=O)C2C(O)CCN2c2nc(C)cc(C(F)(F)F)c2C#N)c1
IC50 (second compound 0.0316 µM): > 10 µM
IC50 (second compound 0.1 µM): > 10 µM
IC50 (second compound 0.316 µM): > 10 µM
IC50 (second compound 1 µM): > 10 µM
IC50 (second compound 3.16 µM): > 10 µM
IC50 (second compound 10 µM): > 10 µM
viability, T/C [1]: 91%
viability, T/C [2]: 104%
viability, T/C [13]: 80.3%
viability, T/C [14]: 85.6%
viability, T/C [15]: 93.2%
viability, T/C [16]: 104%
viability, T/C [3]: 95.5%
viability, T/C [4]: 103%
viability, T/C [17]: 91.4%
viability, T/C [18]: 89.6%
viability, T/C [19]: 99.3%
viability, T/C [20]: 78%
viability, T/C [5]: 86.6%
viability, T/C [6]: 86.5%
viability, T/C [21]: 91.7%
viability, T/C [22]: 91.4%
viability, T/C [23]: 107%
viability, T/C [24]: 75.3%
viability, T/C [7]: 121%
viability, T/C [8]: 110%
viability, T/C [25]: 89.5%
viability, T/C [26]: 92.1%
viability, T/C [27]: 82.5%
viability, T/C [28]: 85.9%
viability, T/C [9]: 92.8%
viability, T/C [10]: 97.1%
viability, T/C [29]: 93.5%
viability, T/C [30]: 110%
viability, T/C [31]: 121%
viability, T/C [32]: 89%
viability, T/C [11]: 101%
viability, T/C [12]: 99%
viability, T/C [33]: 95.1%
viability, T/C [34]: 107%
viability, T/C [35]: 115%
viability, T/C [36]: 94.6%
